Reference: ChEMBL document CHEMBL1201862, “PubChem BioAssay data set” (2004)
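In this assay, cells in 96-well plates receive the compound at five concentrations for 48 hours. Endpoints are linearly interpolated between the surrounding concentrations. GI50 is the concentration that inhibits growth by half.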 The source made the active and inactive calls. No stated cut-off is given here; in the data, active = GI50 up to about 1.1 µM and inactive = higher.

What was measured:
Test in all cases: NCI anticancer screen, dose series, 48 h
[1] = tested on: A498
[2] = tested on: HCC 2998
[3] = tested on: HCT-116
[4] = tested on: HT-29
[5] = tested on: IGROV-1
[6] = tested on: KM12
[7] = tested on: M14
[8] = tested on: MDA-MB-435
[9] = tested on: NCI-H226
[10] = tested on: OVCAR-4
[11] = tested on: OVCAR-5
[12] = tested on: RPMI-8226
[13] = tested on: RXF 393
[14] = tested on: SF-268
[15] = tested on: SF-295
[16] = tested on: SK-OV-3
[17] = tested on: SNB-19
[18] = tested on: SW-620
[19] = tested on: CCRF-CEM

Measured: GI50

CN(C)S(=O)(=O)Nc1ccccn1
inactive: [1] > 100 µM | [2] > 100 µM | [3] > 100 µM | [4] > 100 µM | [5] > 100 µM | [6] > 100 µM | [7] > 100 µM | [8] > 100 µM | [9] > 100 µM | [10] > 100 µM | [11] > 100 µM | [12] > 100 µM | [13] > 100 µM | [14] > 100 µM | [15] > 100 µM | [16] > 100 µM | [17] > 100 µM | [18] > 100 µM

O=C(O)C(Sc1ccc(Cl)cc1)Sc1ccc(Cl)cc1
inactive: [1] 34.8 µM | [19] 28.6 µM | [2] 25.6 µM | [3] 35.2 µM | [4] 43.3 µM | [5] 39.8 µM | [6] 37.9 µM | [7] 39.6 µM | [8] 43.1 µM | [9] 51.9 µM | [10] 48.4 µM | [11] 53 µM | [12] 31.6 µM | [13] > 100 µM | [14] 48.9 µM | [15] 46.9 µM | [16] > 100 µM | [17] 40.6 µM | [18] 58.7 µM

O=C(O)CN1C(=O)CN=C(c2ccccn2)c2cc(Cl)ccc21
inactive: [1] > 100 µM | [3] > 100 µM | [4] > 100 µM | [5] > 100 µM | [6] > 100 µM | [7] > 100 µM | [8] > 100 µM | [9] > 100 µM | [10] > 100 µM | [11] > 100 µM | [12] > 100 µM | [13] > 100 µM | [14] > 100 µM | [15] > 100 µM | [16] > 100 µM | [17] > 100 µM | [18] > 100 µM

O=C(Nc1nc(C23CC4CC(CC(C4)C2)C3)cs1)c1cc2cc(Cl)ccc2oc1=O
inactive: [1] > 100 µM | [19] > 100 µM | [2] > 100 µM | [3] > 100 µM | [4] > 100 µM | [5] > 100 µM | [6] > 100 µM | [8] > 100 µM | [9] > 100 µM | [10] > 100 µM | [11] > 100 µM | [12] > 100 µM | [13] > 100 µM | [14] > 10 µM | [15] > 100 µM | [17] > 100 µM | [18] > 100 µM

N#Cc1c(N)c2c(c(-c3ccccc3)c1-c1ccccc1)C(=O)N(NC(=O)c1ccccc1)C2=O
inactive: [1] 41.9 µM | [19] 42.3 µM | [2] > 100 µM | [3] 19.6 µM | [5] 61.4 µM | [6] > 100 µM | [7] > 100 µM | [8] 74.3 µM | [9] > 100 µM | [10] > 100 µM | [11] > 100 µM | [12] 31.2 µM | [13] 60 µM | [14] > 100 µM | [15] > 100 µM | [17] 58.5 µM | [18] > 100 µM

CCCCCC(=O)NC(=S)Nc1nnn[nH]1
inactive: [1] > 100 µM | [19] > 100 µM | [2] > 100 µM | [3] > 100 µM | [5] > 100 µM | [6] > 100 µM | [7] > 100 µM | [8] > 100 µM | [10] > 100 µM | [11] > 100 µM | [12] > 100 µM | [13] > 100 µM | [14] > 100 µM | [15] > 100 µM | [16] > 100 µM | [17] > 100 µM | [18] > 100 µM

C=Cn1c([N+](=O)[O-])cnc1/C=C/c1ccc(C(=O)OCCN2CCOCC2)cc1
inactive: [1] 75.5 µM | [19] > 100 µM | [3] > 100 µM | [4] > 100 µM | [5] > 100 µM | [6] > 100 µM | [7] > 100 µM | [8] > 100 µM | [9] > 100 µM | [10] > 100 µM | [11] > 100 µM | [12] 12 µM | [13] > 100 µM | [14] > 100 µM | [15] > 100 µM | [16] > 100 µM | [17] > 100 µM | [18] > 100 µM

CC1(C)SCc2nc3ccccc3n21
inactive: [1] > 100 µM | [19] > 100 µM | [2] > 100 µM | [3] > 100 µM | [4] > 100 µM | [5] > 100 µM | [6] > 100 µM | [7] > 100 µM | [8] > 100 µM | [9] 89.9 µM | [10] > 100 µM | [11] > 100 µM | [12] > 100 µM | [13] > 100 µM | [14] > 100 µM | [15] > 100 µM | [16] > 100 µM | [17] > 100 µM | [18] > 100 µM

CCOC(=O)c1c(SCCCN2CCCCC2)n(-c2ccccc2)c(=S)n(-c2ccccc2)c1=O
inactive: [1] 20.1 µM | [19] 15.3 µM | [2] 17.3 µM | [3] 12.4 µM | [4] 20.3 µM | [6] 19.2 µM | [7] 16.5 µM | [8] 15.8 µM | [9] 15.6 µM | [10] 17.7 µM | [11] 17.7 µM | [12] 6.67 µM | [13] 18.3 µM | [14] 37.5 µM | [17] 16.7 µM | [18] 17.7 µM

CC(=O)Nc1ccc(N2C(=O)/C(=C\c3cccc(Oc4ccccc4)c3)S(=O)(=O)C2c2ccccc2)cc1 (stereo not given)
inactive: [1] > 100 µM | [19] 27.7 µM | [2] > 100 µM | [3] 37.5 µM | [4] 41.5 µM | [5] 51.2 µM | [6] > 100 µM | [7] 67 µM | [8] 60.8 µM | [9] 66.2 µM | [10] 37.8 µM | [11] > 100 µM | [12] 20.4 µM | [13] > 100 µM | [15] 89.5 µM | [16] > 100 µM | [17] 90.2 µM | [18] 33.3 µM

OB(O)c1ccccc1C#Cc1ccccc1B(O)O
inactive: [1] 3.04 µM | [19] 20.1 µM | [2] 17.7 µM | [3] 18.1 µM | [4] 42.7 µM | [5] 3.14 µM | [6] 13.9 µM | [7] 22.7 µM | [8] 19.7 µM | [11] 27.4 µM | [12] 20.6 µM | [13] 11.3 µM | [14] 11.5 µM | [15] 22.9 µM | [16] 24 µM | [17] 21.8 µM | [18] 20.1 µM

Cn1c(-c2cccs2)cc(-c2cccs2)c1-c1ccsc1
inactive: [1] > 100 µM | [19] > 100 µM | [2] > 100 µM | [3] 23.3 µM | [4] > 100 µM | [6] 29.5 µM | [7] > 100 µM | [8] > 100 µM | [9] > 100 µM | [10] > 100 µM | [11] > 100 µM | [12] > 100 µM | [13] 3.64 µM | [14] > 100 µM | [15] > 100 µM | [16] > 100 µM | [17] 70.3 µM | [18] > 100 µM

O=C1Nc2ccc(Cl)cc2C(=O)N2CCC[C@@H]12
inactive: [1] > 100 µM | [2] > 100 µM | [3] > 100 µM | [4] > 100 µM | [5] > 100 µM | [6] > 100 µM | [7] > 100 µM | [8] > 100 µM | [9] > 100 µM | [10] > 100 µM | [11] > 100 µM | [12] > 100 µM | [13] 60.3 µM | [14] > 100 µM | [15] > 100 µM | [16] > 100 µM | [17] > 100 µM | [18] > 100 µM

CCOC(=O)c1nc2ccccc2nc1NCc1ccc(OC)c(OC)c1
inactive: [1] > 100 µM | [19] > 100 µM | [2] > 100 µM | [3] > 100 µM | [4] > 100 µM | [5] > 100 µM | [6] > 100 µM | [8] > 100 µM | [9] > 100 µM | [10] > 100 µM | [11] > 100 µM | [12] > 100 µM | [13] 27.8 µM | [14] > 100 µM | [15] > 100 µM | [16] > 100 µM | [18] > 100 µM

CCO[C@@]12CCC3CC4CC[C@@](OCC)(O1)C4C32 (stereo not given in full)
inactive: [1] > 100 µM | [19] > 100 µM | [2] > 100 µM | [3] > 100 µM | [4] > 100 µM | [5] > 100 µM | [6] > 100 µM | [7] > 100 µM | [8] > 100 µM | [9] > 100 µM | [10] > 100 µM | [11] > 100 µM | [12] > 100 µM | [13] > 100 µM | [14] > 100 µM | [15] > 100 µM | [16] > 100 µM | [17] > 100 µM | [18] > 100 µM
